The values that follow come from publication PMC8279484 (Journal of Medicinal Chemistry, 2021).

The target of assay [1] is T1, ALX/FPR2 receptor (Homo sapiens, UniProt P25090).
T1 construct: host or cells: HEK-293, stably double-transfected FPR2+/Gαq+
T1 sequence (P25090 1-351): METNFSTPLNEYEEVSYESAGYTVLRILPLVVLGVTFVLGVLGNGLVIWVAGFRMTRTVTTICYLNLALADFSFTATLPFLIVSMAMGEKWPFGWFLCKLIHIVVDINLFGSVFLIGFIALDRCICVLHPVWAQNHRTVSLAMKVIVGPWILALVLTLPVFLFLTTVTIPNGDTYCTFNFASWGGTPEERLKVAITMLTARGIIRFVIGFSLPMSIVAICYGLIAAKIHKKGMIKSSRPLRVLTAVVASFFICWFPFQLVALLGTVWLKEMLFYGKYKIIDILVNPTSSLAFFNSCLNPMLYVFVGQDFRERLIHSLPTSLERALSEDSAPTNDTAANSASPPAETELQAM
The experiment in a line: Intracellular calcium flux in FPR2+/Gαq+ stably transfected HEK-293. It counts as cell-based. Particulars: ATP 1 μM; Wp 2 nM. As for the experimental part:
HEK-293-transfected and wt cell lines were cultured in Dulbecco’s modified Eagle’s medium (DMEM Glutamax, 4 mM L-glu and 4.50 g/L glucose—Gibco, Ireland) supplemented with heat-inactivated (30 min at 56C) 10% (v/v) FBS (Invitrogen, U.K.), 50 U penicillin, and 50 μg of streptomycin (Invitrogen, U.K.). As stably double-transfected FPR2^+/Gαq^+ HEK-293 cells were resistant to Geneticin and Hygromycin, these were used as selective antibiotics (500 and 100 μg/mL, respectively) to maintain the stable double transfection with the ALX/FPR2 receptor and the Gαq subunit coupled to it. Immediately prior to calcium measurement, fluorescently labeled cells were treated with 10^–11/–9/–7M LXA41 or sLXms using an injection system coupled to the fluorescence reader.
To explore the mechanism of action through which the sLXm lead compound exerts the effects seen here, its interaction with the ALX/FPR2 receptor was investigated and agonist-induced intracellular calcium transients were measured using an engineered cell line stably overexpressing the ALX/FPR2 receptor and the Gαq subunit coupled to it (Figure S6). Wild-type HEK cells were used as controls, to verify the specificity of the agonism toward ALX/FPR2, as previously reported.[36] Briefly, prior to cell plating, sterile 96-well plates (black-sided with optically clear glass flat bottoms) were PDL-coated overnight. Subsequently, 2 × 10^5 wild-type cells and overexpressed cells/well were cultured for 18 h in DMEM complete media (containing Ca^2+ and Mg^2+) to facilitate adherence prior to labeling with Fluo-4 dye. After 1 h of incubation at 37 °C with Fluo-4, cells were gently washed twice and placed in 100% Hanks’ balanced salt solution (HBSS; 37 °C) before reading the fluorescence (485/535 nm), using a spectrophotometer conjugated with an injection system (Clariostar BMG LABTECH plate reader), allowing addition to the cells of controls ([…], 2 nM Wp, a synthetic ALX/FPR2 agonist) or experimental treatments [10 pM, 1 nM, and 100 nM LXA41 or (R)-6].
During calcium flux measurement, the kinetic steps involved were the following: the baseline fluorescent signal was measured for 20 s, followed by 100 s immediately after agonist injection. Subsequently, 2% Triton-X-100 was added to lyse the cells (monitoring for 20 s the maximal release of calcium ions in the extracellular environment) and, finally, 25 mM tetraacetic acid (EGTA) was added to chelate calcium ions (monitoring for additional 20 s the minimal detection of calcium ions in the extracellular environment) (Figure S7).
The “coding” of the heat-map indicates the arbitrary criteria to assign points to each single PD component (efficacy = Imax or Emax; potency = IC50 or EC50; slope = HS) to generate a final (aggregate) relative PD score. If a single PD component was greater than the reference level (x > 1), then the single-component relative score was arbitrarily set to +1 (light green) or +2 (dark green). If a single PD component was equal to the reference level (x = 1), then the single-component relative score was arbitrarily set to 0 (gray). If a single PD component was smaller than the reference level (x < 1), then the single-component relative score was arbitrarily set to −1 (light red) or −2 (dark red). If the curve of a single PD component was best fitting to a flat line (x = 0), then the single-component relative score was arbitrarily set to −4 (purple) (Table S1).

Assay [2] concerns wild-type HEK-293 cells. The experiment in a line: Intracellular calcium flux in wild-type HEK-293 (specificity control). It counts as cell-based, human. The procedure:
To explore the mechanism of action through which the sLXm lead compound exerts the effects seen here, its interaction with the ALX/FPR2 receptor was investigated and agonist-induced intracellular calcium transients were measured using an engineered cell line stably overexpressing the ALX/FPR2 receptor and the Gαq subunit coupled to it (Figure S6). Wild-type HEK cells were used as controls, to verify the specificity of the agonism toward ALX/FPR2, as previously reported.[36] Briefly, prior to cell plating, sterile 96-well plates (black-sided with optically clear glass flat bottoms) were PDL-coated overnight. Subsequently, 2 × 10^5 wild-type cells and overexpressed cells/well were cultured for 18 h in DMEM complete media (containing Ca^2+ and Mg^2+) to facilitate adherence prior to labeling with Fluo-4 dye. After 1 h of incubation at 37 °C with Fluo-4, cells were gently washed twice and placed in 100% Hanks’ balanced salt solution (HBSS; 37 °C) before reading the fluorescence (485/535 nm), using a spectrophotometer conjugated with an injection system (Clariostar BMG LABTECH plate reader), allowing addition to the cells of controls (1 mM ATP, a GPCR purinergic agonist, 2 nM Wp, a synthetic ALX/FPR2 agonist) or experimental treatments [10 pM, 1 nM, and 100 nM LXA41 or (R)-6].

With `Nc1ncnc2c1ncn2[C@@H]1O[C@H](COP(=O)(O)OP(=O)(O)OP(=O)(O)O)[C@@H](O)[C@H]1O` [ATP], the “Ca^2+ mobilization by positive controls” value in assay [1] is “Ca^2+ mobilization was observed”. Further, the “Ca^2+ mobilization in wild-type HEK-293 cells” value in assay [2] was “stimulated Ca^2+ mobilization”.

In the case of W-peptide [Wp], the “Ca^2+ mobilization by positive controls” value in assay [1] is recorded as “Ca^2+ mobilization was observed”. Moreover, the “Ca^2+ mobilization in wild-type HEK-293 cells” value in assay [2] is listed as “without effect”.
